Measured values taken from PMC9334755 (Cancer Biology & Medicine, 2021).
pIC50: −log10 of the molar value. Like-named read-outs stand apart in the source and are kept apart here.

Experiments:
TMD8 xenografts = experiment: TMD8 tumor xenograft in SCID mice; format: in vivo
Procedure: TMD8 cells (1.0 × 10^7 cells in 100 µL of serum-free medium containing 40% Matrigel) were injected subcutaneously into SCID mice (6–8 weeks of age), and the tumor volume was monitored twice per week. […] The compounds were formulated in 0.5% methylcellulose containing 0.1% sodium lauryl sulfate. Tumor size and body weight were measured twice per week. All experiments were approved by the institutional animal care and use committee of Shouyao Holdings and were performed in accordance with the guidelines in the U.S. National Institutes of Health Guide for the Care and Use of Laboratory Animals (Approval No. CTA-2015063).
Figure 5 SY-1530 inhibits B-cell malignancy in vivo. (A–D) TMD8 cells were injected subcutaneously into SCID mice (6–8 weeks of age; 8 mice per group). […] Tumor size (A) and body weight (B) were measured […]. On the last day, mice were sacrificed 2.5 h after administration. LC-MS/MS was performed to measure the concentration of SY-1530 in plasma (C), and tumor samples were collected and analyzed with Western blot (D). QD represents administration once daily. Data are shown as mean ± SEM. Statistical analysis was performed with two-way analysis of variance (*P < 0.05; **P < 0.01; ***P < 0.001). […] Tumor size (E), body weight (F), SY-1530 concentration in the plasma (G), and protein expression in tumors (H) were measured. Data are shown as mean ± SEM. Statistical analysis was performed with two-way analysis of variance (*P < 0.05; **P < 0.01; ***P < 0.001).

LYN A = LYN A (Homo sapiens, UniProt P07948); experiment: Protein kinase panel at 1 µM, LYN A; format: biochemical
HCK = HCK (Homo sapiens, UniProt P08631); experiment: Protein kinase panel at 1 µM, HCK; format: biochemical
BLK = BLK (Homo sapiens, UniProt P51451); experiment: Protein kinase panel at 1 µM, BLK; format: biochemical
EGFR = EGFR (Homo sapiens, UniProt P00533); experiment: HTRF kinase assay, EGFR
Procedure: (§1) Homogeneous time-resolved fluorescence (HTRF) assays were performed with a HTRF® KinEASE™-TK kit (Trevigen).

HER2 = HER2 (Homo sapiens, UniProt P04626); experiment: HTRF kinase assay, HER2
Procedure: as §1

TEC = TEC (Homo sapiens, UniProt P42680); experiment: HTRF kinase assay, TEC
Procedure: as §1

ABL1 = ABL1 (Homo sapiens, UniProt P00519); experiment: Protein kinase panel at 1 µM, ABL1; format: biochemical
CSK = CSK (Homo sapiens, UniProt P41240); experiment: Protein kinase panel at 1 µM, CSK; format: biochemical
[1] = mouse
FGR = FGR (Homo sapiens, UniProt P09769); experiment: Protein kinase panel at 1 µM, FGR; format: biochemical
[2] = dog, in vivo
FLT1 = FLT1 (Homo sapiens, UniProt P17948); experiment: Protein kinase panel at 1 µM, FLT1; format: biochemical
hERG = hERG (Homo sapiens, UniProt Q12809)
Excerpt: Tissue distribution *From the literature.
Hear Liver Spleen LungKidney Brain Uteru Ovar TestisPlasma
Compound Maximum concentration (μM) Inhibition rate of maximumconcentration IC 50 (μM) […]

JAK3 = JAK3 (Homo sapiens, UniProt P52333); experiment: HTRF kinase assay, JAK3
Procedure: as §1

YES1 = YES1 (Homo sapiens, UniProt P07947); experiment: Protein kinase panel at 1 µM, YES1; format: biochemical
FYN = FYN (Homo sapiens, UniProt P06241); experiment: Protein kinase panel at 1 µM, FYN; format: biochemical
Pfeiffer cells = experiment: Apoptosis detection (Annexin V / 7-AAD) in Pfeiffer cells; format: cell-based; details: 24 h, Annexin V and 7-AAD
Procedure: Apoptosis assays were performed with an Annexin V-PE Apoptosis Detection Kit I (BD Biosciences). Briefly, 5 × 10^5 Pfeiffer cells were seeded on 6-well plates and treated with BTK inhibitors at the indicated concentrations. After 24 h or 48 h, cells were collected and stained with PE Annexin V and 7-AAD according to the manufacturer’s instructions. FACS analysis was performed with a Guava flow cytometer.
Figure 4 SY-1530 blocks B-cell receptor signaling and induces apoptosis. (A–D) Human B and T cells were purified and incubated with different concentrations of BTK inhibitors for 1 h. B cells were stimulated with 50 μg/mL anti-human IgM F(ab′)2, and T cells were stimulated with 50 μg/mL anti-CD3/CD28 beads overnight directly or after washout of BTK inhibitors before stimulation. The percentage of CD69 positive cells was analyzed by flow cytometry. Data are shown as the mean ± SEM (n = 3). Statistical analysis was performed with Student’s t-test (*P < 0.05, **P < 0.01, ***P < 0.001). (E) Pfeiffer cells and Romas cells were preincubated with different concentrations of compounds for 1 h, washed with PBS, and then stimulated with anti-IgM/anti-IgG (10 μg/mL) for 10 min. Cells were lysed and analyzed by Western blot with the indicated antibodies. […] The cells were stained with both PE-Annexin and 7-AAD and analyzed by flow cytometry. […] Cells were lysed and analyzed with specific antibodies.

[3] = IC50 SY-1530 over IC50 ibrutinib

EGFR, sequence (P00533 25-1210): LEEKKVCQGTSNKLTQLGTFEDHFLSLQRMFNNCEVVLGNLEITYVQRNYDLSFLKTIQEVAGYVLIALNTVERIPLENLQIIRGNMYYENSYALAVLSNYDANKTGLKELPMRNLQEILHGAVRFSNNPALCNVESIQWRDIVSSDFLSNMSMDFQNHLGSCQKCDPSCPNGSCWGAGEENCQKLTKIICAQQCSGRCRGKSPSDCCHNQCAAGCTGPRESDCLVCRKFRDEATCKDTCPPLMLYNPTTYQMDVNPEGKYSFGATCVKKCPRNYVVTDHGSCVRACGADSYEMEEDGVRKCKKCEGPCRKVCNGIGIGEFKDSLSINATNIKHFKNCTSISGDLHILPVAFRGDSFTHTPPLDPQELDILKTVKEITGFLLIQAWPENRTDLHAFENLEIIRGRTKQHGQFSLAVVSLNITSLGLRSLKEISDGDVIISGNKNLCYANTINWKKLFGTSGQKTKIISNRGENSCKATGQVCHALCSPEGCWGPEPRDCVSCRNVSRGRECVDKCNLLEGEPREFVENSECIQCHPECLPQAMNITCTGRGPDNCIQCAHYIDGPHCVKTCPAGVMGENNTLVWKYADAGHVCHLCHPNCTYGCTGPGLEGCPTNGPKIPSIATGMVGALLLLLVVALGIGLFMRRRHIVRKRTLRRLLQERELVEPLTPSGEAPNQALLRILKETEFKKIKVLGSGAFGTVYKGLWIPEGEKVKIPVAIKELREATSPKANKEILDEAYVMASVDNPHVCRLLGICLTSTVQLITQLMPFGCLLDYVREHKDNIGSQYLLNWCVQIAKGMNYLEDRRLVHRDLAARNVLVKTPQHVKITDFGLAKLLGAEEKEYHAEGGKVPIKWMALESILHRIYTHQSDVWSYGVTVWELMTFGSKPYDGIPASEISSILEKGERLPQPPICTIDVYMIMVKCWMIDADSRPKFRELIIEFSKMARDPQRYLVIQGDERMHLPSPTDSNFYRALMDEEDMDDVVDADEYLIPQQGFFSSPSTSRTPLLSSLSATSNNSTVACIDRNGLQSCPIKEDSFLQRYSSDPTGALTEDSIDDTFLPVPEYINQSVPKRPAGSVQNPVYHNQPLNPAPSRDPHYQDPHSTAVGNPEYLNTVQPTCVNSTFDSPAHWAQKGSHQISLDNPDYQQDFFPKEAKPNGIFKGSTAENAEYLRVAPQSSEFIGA
JAK3, sequence (P52333 whole entry): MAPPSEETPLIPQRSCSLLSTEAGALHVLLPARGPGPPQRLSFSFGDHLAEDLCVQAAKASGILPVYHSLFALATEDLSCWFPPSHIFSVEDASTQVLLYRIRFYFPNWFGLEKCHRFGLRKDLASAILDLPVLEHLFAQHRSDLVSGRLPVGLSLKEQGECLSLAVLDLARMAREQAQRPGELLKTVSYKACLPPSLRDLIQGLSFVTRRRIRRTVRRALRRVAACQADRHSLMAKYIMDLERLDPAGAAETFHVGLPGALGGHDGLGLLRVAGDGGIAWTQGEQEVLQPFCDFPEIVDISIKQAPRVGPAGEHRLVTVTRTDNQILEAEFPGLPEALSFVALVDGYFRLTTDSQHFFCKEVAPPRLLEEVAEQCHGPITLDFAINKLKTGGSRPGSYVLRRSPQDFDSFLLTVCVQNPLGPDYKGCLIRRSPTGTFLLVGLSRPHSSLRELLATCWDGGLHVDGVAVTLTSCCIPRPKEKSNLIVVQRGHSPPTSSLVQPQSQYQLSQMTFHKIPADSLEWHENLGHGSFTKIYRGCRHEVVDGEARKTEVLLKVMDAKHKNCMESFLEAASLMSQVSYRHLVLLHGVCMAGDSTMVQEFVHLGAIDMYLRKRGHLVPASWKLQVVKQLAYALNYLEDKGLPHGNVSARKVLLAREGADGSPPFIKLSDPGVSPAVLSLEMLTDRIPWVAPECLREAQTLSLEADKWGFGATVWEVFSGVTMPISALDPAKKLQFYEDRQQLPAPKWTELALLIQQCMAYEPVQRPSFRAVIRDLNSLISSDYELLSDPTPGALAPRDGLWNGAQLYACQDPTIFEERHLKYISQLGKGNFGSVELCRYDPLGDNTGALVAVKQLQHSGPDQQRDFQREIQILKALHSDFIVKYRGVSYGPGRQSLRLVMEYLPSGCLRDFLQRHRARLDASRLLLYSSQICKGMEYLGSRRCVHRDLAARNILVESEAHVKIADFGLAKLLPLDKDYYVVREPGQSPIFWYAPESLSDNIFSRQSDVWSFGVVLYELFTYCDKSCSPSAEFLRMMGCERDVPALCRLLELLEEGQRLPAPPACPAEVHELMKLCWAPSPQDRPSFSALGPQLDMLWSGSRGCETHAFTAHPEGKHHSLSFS
hERG, sequence (Q12809 whole entry): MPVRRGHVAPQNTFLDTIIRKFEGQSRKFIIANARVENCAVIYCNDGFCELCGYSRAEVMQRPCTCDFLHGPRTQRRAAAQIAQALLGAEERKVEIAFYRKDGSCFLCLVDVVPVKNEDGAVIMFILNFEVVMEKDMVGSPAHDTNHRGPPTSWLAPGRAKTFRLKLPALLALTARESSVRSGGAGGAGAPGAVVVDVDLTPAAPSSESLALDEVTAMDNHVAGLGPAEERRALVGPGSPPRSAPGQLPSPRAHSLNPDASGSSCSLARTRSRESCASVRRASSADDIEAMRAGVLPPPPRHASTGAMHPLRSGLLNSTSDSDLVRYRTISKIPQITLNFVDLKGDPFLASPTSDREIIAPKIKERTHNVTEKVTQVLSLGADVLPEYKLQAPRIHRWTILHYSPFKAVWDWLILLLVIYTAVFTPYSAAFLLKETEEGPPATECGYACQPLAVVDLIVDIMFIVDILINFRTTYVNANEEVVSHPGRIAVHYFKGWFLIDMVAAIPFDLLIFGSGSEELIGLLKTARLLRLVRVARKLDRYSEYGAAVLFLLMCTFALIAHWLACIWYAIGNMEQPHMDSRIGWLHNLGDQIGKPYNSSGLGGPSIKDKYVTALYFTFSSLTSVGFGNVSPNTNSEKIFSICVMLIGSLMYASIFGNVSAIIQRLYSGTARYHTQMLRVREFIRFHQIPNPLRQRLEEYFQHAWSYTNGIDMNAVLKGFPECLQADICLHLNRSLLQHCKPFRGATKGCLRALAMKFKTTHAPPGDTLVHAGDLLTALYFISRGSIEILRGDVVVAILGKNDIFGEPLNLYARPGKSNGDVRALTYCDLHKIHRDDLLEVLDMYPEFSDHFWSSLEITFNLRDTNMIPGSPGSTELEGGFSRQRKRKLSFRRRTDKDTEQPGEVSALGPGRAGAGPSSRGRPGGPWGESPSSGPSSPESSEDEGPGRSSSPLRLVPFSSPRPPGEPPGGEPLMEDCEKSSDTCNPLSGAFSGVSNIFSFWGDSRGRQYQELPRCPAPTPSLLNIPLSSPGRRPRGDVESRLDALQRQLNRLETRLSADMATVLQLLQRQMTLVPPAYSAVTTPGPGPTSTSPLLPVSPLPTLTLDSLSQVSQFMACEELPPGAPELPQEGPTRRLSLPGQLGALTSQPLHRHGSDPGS
TEC, sequence (P42680 whole entry): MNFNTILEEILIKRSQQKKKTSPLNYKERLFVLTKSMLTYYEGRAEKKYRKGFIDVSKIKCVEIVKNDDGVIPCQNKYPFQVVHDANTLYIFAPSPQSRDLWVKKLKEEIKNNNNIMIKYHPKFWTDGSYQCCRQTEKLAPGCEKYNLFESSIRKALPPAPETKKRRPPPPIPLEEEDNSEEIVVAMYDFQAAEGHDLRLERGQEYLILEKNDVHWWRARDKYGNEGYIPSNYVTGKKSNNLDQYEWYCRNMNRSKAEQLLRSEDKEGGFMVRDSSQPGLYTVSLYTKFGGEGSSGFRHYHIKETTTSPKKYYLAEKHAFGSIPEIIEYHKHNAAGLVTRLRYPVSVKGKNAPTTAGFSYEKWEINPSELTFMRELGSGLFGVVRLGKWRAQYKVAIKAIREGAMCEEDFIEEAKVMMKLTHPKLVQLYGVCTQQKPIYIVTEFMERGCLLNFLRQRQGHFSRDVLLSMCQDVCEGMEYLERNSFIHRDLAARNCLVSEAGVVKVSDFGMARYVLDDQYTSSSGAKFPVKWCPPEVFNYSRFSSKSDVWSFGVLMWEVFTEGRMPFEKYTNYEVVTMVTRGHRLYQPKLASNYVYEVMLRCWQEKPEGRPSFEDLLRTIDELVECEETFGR
CSK, sequence (P41240 whole entry): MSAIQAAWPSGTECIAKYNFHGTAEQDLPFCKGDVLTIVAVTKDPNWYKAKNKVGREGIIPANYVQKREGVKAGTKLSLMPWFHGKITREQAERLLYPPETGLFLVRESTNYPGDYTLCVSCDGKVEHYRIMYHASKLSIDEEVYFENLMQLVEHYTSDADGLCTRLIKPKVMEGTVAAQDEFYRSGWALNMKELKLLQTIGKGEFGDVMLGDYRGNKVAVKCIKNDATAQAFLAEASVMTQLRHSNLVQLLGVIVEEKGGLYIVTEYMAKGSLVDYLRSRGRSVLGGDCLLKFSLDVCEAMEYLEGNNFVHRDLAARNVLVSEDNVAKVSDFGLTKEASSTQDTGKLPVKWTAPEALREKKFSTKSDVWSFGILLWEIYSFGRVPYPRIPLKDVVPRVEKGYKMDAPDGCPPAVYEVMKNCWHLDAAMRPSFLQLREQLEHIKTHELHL
FYN, sequence (P06241 whole entry): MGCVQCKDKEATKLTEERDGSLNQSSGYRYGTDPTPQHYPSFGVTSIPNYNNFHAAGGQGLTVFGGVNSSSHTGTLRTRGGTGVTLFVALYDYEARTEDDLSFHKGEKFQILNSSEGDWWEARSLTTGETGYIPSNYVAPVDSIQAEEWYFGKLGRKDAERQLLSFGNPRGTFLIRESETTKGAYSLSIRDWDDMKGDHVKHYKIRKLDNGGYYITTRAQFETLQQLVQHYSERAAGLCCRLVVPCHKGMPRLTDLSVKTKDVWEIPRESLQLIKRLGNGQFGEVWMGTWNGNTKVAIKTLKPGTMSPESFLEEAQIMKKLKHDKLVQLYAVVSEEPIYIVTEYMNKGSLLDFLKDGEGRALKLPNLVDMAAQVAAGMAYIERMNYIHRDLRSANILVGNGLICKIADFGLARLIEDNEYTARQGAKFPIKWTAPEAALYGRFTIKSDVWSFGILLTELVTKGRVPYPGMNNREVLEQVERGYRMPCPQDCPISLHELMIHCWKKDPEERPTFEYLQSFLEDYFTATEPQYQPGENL

COC/C=C/C(=O)N1CC[C@@H](n2nc(-c3ccc(Oc4ccccc4)cc3)c(C(N)=O)c2N)C1 [SY-1530]
Inhibitory potency on tumor growth (TMD8 xenografts; 30 mg/kg BID): better inhibitory potency on tumor growth than the same dose of ibrutinib | Anti-tumor activity (TMD8 xenografts; 30 mg/kg QD): comparable to that of ibrutinib at 100 mg/kg | Inhibitory potency on tumor growth (TMD8 xenografts; 100 mg/kg QD, versus ibrutinib 100 mg/kg QD): better inhibitory potency on tumor growth than ibrutinib | Mouse bodyweight (TMD8 xenografts; BID groups): moderate decrease | Tumor growth versus vehicle treated group (TMD8 xenografts; BID, SY-1530 30 or 10 mg/kg, ibrutinib 30 mg/kg): dramatically lower | Bodyweights of mice (TMD8 xenografts; QD groups): moderately changed | Concentration in plasma (TMD8 xenografts; QD groups, 2.5 h after administration on the last day): higher than those of ibrutinib | Tumor volume (TMD8 xenografts; oral, QD, 29 days): significant decrease in tumor volumes | Inhibition (%), LYN A (LYN A): 87% | Inhibition (%), HCK (HCK): 67% | Inhibition (%), BLK (BLK): 53% | Ratio, EGFR (EGFR; [3]): 225 | IC50 (EGFR; read-out: IC50 (nM), EGFR, HTRF): 360 nM | Ratio, HER2 (HER2; [3]): > 2500 | IC50 (HER2; read-out: IC50 (nM), HER2, HTRF): > 10000 nM | Ratio, TEC (TEC; [3]): 1.3 | IC50 (TEC; read-out: IC50 (nM), TEC, HTRF): 10.4 nM | Inhibition (%), ABL1 (ABL1): 8% | Inhibition (%), CSK (CSK): 84% | Plasma protein binding (%) [1]: 94.8% | Inhibition (%), FGR (FGR): 96% | AUC0–∞ ([2]; iv, 3 mg/kg): 5458 ng·h/mL | CL ([2]; iv, 3 mg/kg): 9.32 mL/min/kg | Vss ([2]; iv, 3 mg/kg): 0.857 L/kg | t½ ([2]; iv, 3 mg/kg): 1.44 h | AUC0–∞ ([2]; po, 10 mg/kg): 4411 ng·h/mL | Cmax ([2]; po, 10 mg/kg): 1039 ng/mL | F (%) ([2]; po, 10 mg/kg): 24.2% | Tmax ([2]; po, 10 mg/kg): 1.08 h | t½ ([2]; po, 10 mg/kg): 3.85 h | AUC0–∞ ([2]; po, 30 mg/kg): 6365 ng·h/mL | Cmax ([2]; po, 30 mg/kg): 1572 ng/mL | F (%) ([2]; po, 30 mg/kg): 11.7% | Tmax ([2]; po, 30 mg/kg): 0.917 h | t½ ([2]; po, 30 mg/kg): 5.33 h | AUC0–∞ ([2]; po, 100 mg/kg): 9095 ng·h/mL | Cmax ([2]; po, 100 mg/kg): 2127 ng/mL | F (%) ([2]; po, 100 mg/kg): 5.00% | Tmax ([2]; po, 100 mg/kg): 1.25 h | t½ ([2]; po, 100 mg/kg): 5.03 h | Inhibition (%), FLT1 (FLT1): 33% | pIC50 (hERG): 5.27 | Inhibition rate of maximum concentration, hERG (hERG; 30 µM): 86.75 ± 2.61% | Ratio, JAK3 (JAK3; [3]): > 27 | IC50 (JAK3; read-out: IC50 (nM), JAK3, HTRF): > 10000 nM | Inhibition (%), YES1 (YES1): 94% | Inhibition (%), FYN (FYN): 87% | Apoptosis in Pfeiffer cells (Pfeiffer cells): induced early and late apoptosis
